Patent US10640532B2, “Crystal of reduced glutathione” (University Public Corporation Osaka, priority 2015, dated 2020)
Read-outs that look alike come from different tables or passages of the source.

Details: storage 40° C., 75% relative humidity
Method: The amorphous solid of a reduced glutathione-sodium salt obtained in (1) of Example 1, and the final crystal of a reduced glutathione-sodium salt obtained in Example 1 were compared for hygroscopicity under the following conditions.
Storage conditions: 40° C., 75% relative humidity (adjusted with saturated brine)
Measurement conditions: About 0.3 g of a sample was weighed with a precision balance, and charged into a plastic container. After being stored under the foregoing storage conditions, the sample was weighed, and the percentage of weight change was calculated.
The measured sample weight at each time point is relative to the 100% initial weight at the start of testing. In table 5, the symbol “-” means no measurement.

SMILES	weight (%) relative to 100% initial weight (elapsed time 0 h)	weight (%) relative to 100% initial weight (elapsed time 2 h)	weight (%) relative to 100% initial weight (elapsed time 10 h)	weight (%) relative to 100% initial weight (elapsed time 20 h)	weight (%) relative to 100% initial weight (elapsed time 48 h)	hygroscopicity / preservation stability compared with the amorphous solid (up to 48 h)	weight (%) relative to 100% initial weight (elapsed time 0.25 h)	weight (%) relative to 100% initial weight (elapsed time 4 h)
N[C@@H](CCC(=O)N[C@@H](CS)C(=O)NCC(=O)O)C(=O)[O-].[Na+] [Crystal, reduced glutathione-sodium salt]	100%	100.7%	101.9%	102%	102.9%	less likely to absorb moisture than the amorphous solid		
N[C@@H](CCC(=O)N[C@@H](CS)C(=O)NCC(=O)O)C(=O)[O-].[Na+] [Amorphous, reduced glutathione-sodium salt]	100%	104.1%	110.2%	117.3%	125.8%		100.7%	106.2%
